Reference: patent publication US4362743A, “Antibacterial monic acid esters” (Beecham Group Limited, priority 1980, dated 1982)
≈ marks a conversion by molar mass, not a printed value. Read-outs that look alike come from different tables or passages of the source.

What was measured:
Assay type in all cases: cell-based
[1] = system: M. suipneumoniae J2206/183b; experiment: Anti-mycoplasmal activity in vitro MIC; details: Mesomycoplasma hyopneumoniae, 144 h
M. suipneumoniae UCD 1 = experiment: Anti-mycoplasmal activity in vitro MIC; details: Mesomycoplasma hyopneumoniae, UCD1, 144 h
M. hyorhinis ATCC 23234 = experiment: Anti-mycoplasmal activity in vitro MIC; details: Mesomycoplasma hyorhinis, ATCC23234, 144 h
Staph. aureus Oxford = experiment: Veterinary bacteria MIC; details: Staphylococcus aureus, Diagnostic Sensitivity Test Agar, 18 hours 37° C.
Procedure: (§1) The values were determined using a two fold serial dilutions in Diagnostic Sensitivity Test Agar with an inoculum of 10^4 organisms and incubation for 18 hours at 37° C.

Past. multocida PA1 = experiment: Veterinary bacteria MIC; details: Pasteurella multocida, Diagnostic Sensitivity Test Agar, 18 hours 37° C.
Procedure: as §1

S. typhimurium S18 = experiment: Veterinary bacteria MIC; details: Salmonella enterica
Procedure: as §1

E. coli NCTC 10418 = experiment: Veterinary bacteria MIC; details: Escherichia coli
Procedure: as §1

[2] = system: Staph. aureus B4 (pen. resistant); experiment: Veterinary bacteria MIC; details: Staphylococcus aureus, Diagnostic Sensitivity Test Agar, 18 hours 37° C.
Procedure: as §1

Bord. bronchiseptica B08 = experiment: Veterinary bacteria MIC; details: Bordetella bronchiseptica
Procedure: as §1

[3] = system: Staph. aureus 152 (pen. sens); experiment: Veterinary bacteria MIC; details: Staphylococcus aureus, Diagnostic Sensitivity Test Agar, 18 hours 37° C.
Procedure: as §1

Strep. uberis SPU1 = experiment: Veterinary bacteria MIC; details: Streptococcus uberis, Diagnostic Sensitivity Test Agar, 18 hours 37° C.
Procedure: as §1

[4] = system: Strep. suis (Group D) SPS11; experiment: Veterinary bacteria MIC; details: Streptococcus suis
Procedure: as §1

Strep. agalactiae SPA1 = experiment: Veterinary bacteria MIC; details: Streptococcus agalactiae, Diagnostic Sensitivity Test Agar, 18 hours 37° C.
Procedure: as §1

[5] = system: Erysipelothrix rhusiopathiae NCTC 8163; experiment: Veterinary bacteria MIC; details: Erysipelothrix rhusiopathiae, NCTC8163, 18 h
Procedure: as §1

Bord. brochiasetpica B09 = experiment: Veterinary bacteria MIC; details: Diagnostic Sensitivity Test Agar, 18 hours 37° C.
Procedure: as §1

[6] = system: Corynebacterium pyogenes CY1; experiment: Veterinary bacteria MIC; details: Trueperella pyogenes
Procedure: as §1

Past. haemolytica PA5 = experiment: Veterinary bacteria MIC; details: Mannheimia haemolytica; Past. haemolytica PA5; Diagnostic Sensitivity Test Agar, 18 hours 37° C.; read-out: M.I.C.
Procedure: as §1

Past. multocida PA2 = experiment: Veterinary bacteria MIC; details: Pasteurella multocida; Past. multocida PA2; Diagnostic Sensitivity Test Agar, 18 hours 37° C.; read-out: M.I.C.
Procedure: as §1

S. dublin S7 = experiment: Veterinary bacteria MIC; details: Salmonella enterica
Procedure: as §1

Strep. dysgalactiae SPD1 = experiment: Veterinary bacteria MIC; details: Streptococcus dysgalactiae, Diagnostic Sensitivity Test Agar, 18 hours 37° C.
Procedure: as §1

E. coli El = experiment: Veterinary bacteria MIC; details: Escherichia coli
Procedure: as §1

M. suipneumoniae JF 435 = experiment: Anti-mycoplasmal activity in vitro MIC; details: Mesomycoplasma hyopneumoniae, JF435, 144 h; M. suipneumoniae JF 435; Friis broth, 0.9% agarose, 6 days 37° C.; read-out: M.I.C.
M. bovis NCTC 10131 = experiment: microbe, parasite or virus in culture; details: NCTC10131, 144 h
M. suipneumoniae Str. 11 = experiment: Anti-mycoplasmal activity in vitro MIC; details: Mesomycoplasma hyopneumoniae
Strep. Group C 64/848 = experiment: Human bacteria MIC
Procedure: The values were determined by serial dilutions in nutrient agar with 5% chocolated horse blood after incubations for 18 hours at 37° C.

M. dispar NCTC 10125 = experiment: Anti-mycoplasmal activity in vitro MIC; details: 144 h
M. suipneumoniae TAM 6N = experiment: Anti-mycoplasmal activity in vitro MIC; details: Mesomycoplasma hyopneumoniae, TAM6N, 144 h
[7] = system: M. suipneumoniae NCTC 10110; experiment: Anti-mycoplasmal activity in vitro MIC; details: Mesomycoplasma hyopneumoniae, NCTC10110, 144 h
M. pneumoniae ATCC 15492 = experiment: Anti-mycoplasmal activity in vitro MIC; details: Mycoplasmoides pneumoniae, ATCC15492, 144 h
M. hyorhinis ATCC 25021 = experiment: Anti-mycoplasmal activity in vitro MIC; details: Mesomycoplasma hyorhinis, ATCC25021, 144 h

SMILES	MIC (M. suipneumoniae UCD 1) [mg/L]	MIC (M. hyorhinis ATCC 23234) [mg/L]	MIC (Staph. aureus Oxford) [mg/L]	MIC (Past. multocida PA1) [mg/L]	MIC [2] [mg/L]	MIC [3] [mg/L]	MIC (Strep. uberis SPU1) [mg/L]	MIC (Strep. agalactiae SPA1) [mg/L]	MIC [5] [mg/L]	MIC (Bord. brochiasetpica B09) [mg/L]	MIC (Past. haemolytica PA5) [mg/L]	MIC (Past. multocida PA2) [mg/L]	MIC (Strep. dysgalactiae SPD1) [mg/L]	MIC (M. suipneumoniae JF 435) [mg/L]	MIC (M. bovis NCTC 10131) [mg/L]	MIC (M. dispar NCTC 10125) [mg/L]	MIC (M. pneumoniae ATCC 15492) [mg/L]	MIC (M. hyorhinis ATCC 25021) [mg/L]	other results
CON=C(CCCOC(=O)/C=C(\C)C[C@@H]1OC[C@H](C[C@@H]2O[C@H]2[C@@H](C)[C@H](C)O)[C@@H](O)[C@H]1O)c1ccccc1 [Example 5, 4-Methoxyimino-4-phenylbutyl monate A]	0.25 (≈ 0.481 µM)	0.25 (≈ 0.481 µM)	0.625 (≈ 1.2 µM)	20 (≈ 38.5 µM)	0.625 (≈ 1.2 µM)	0.625 (≈ 1.2 µM)	0.625 (≈ 1.2 µM)	1.25 (≈ 2.41 µM)	40 (≈ 77 µM)	40 (≈ 77 µM)	80 (≈ 154 µM)	0.039 (≈ 0.0751 µM)	1.25 (≈ 2.41 µM)	0.5 (≈ 0.962 µM)	0.025 (≈ 0.0481 µM)	0.1 (≈ 0.192 µM)	2.5 (≈ 4.81 µM)	0.25 (≈ 0.481 µM)	MIC ([1]; M. suipneumoniae J2206/183b, Friis broth, 0.9% agarose, 6 days 37° C., read-out: M.I.C.): 0.5 mg/L (≈ 0.962 µM); MIC (S. typhimurium S18; S. typhimurium S18, Diagnostic Sensitivity Test Agar, 18 hours 37° C., read-out: M.I.C.): > 80 mg/L; MIC (E. coli NCTC 10418; NCTC10418, E. coli NCTC 10418, Diagnostic Sensitivity Test Agar, 18 hours 37° C., read-out: M.I.C.): > 80 mg/L; MIC (Bord. bronchiseptica B08; Bord. bronchiseptica B08, Diagnostic Sensitivity Test Agar, 18 hours 37° C., read-out: M.I.C.): > 80 mg/L; MIC ([4]; Strep. suis (Group D) SPS11, Diagnostic Sensitivity Test Agar, 18 hours 37° C., read-out: M.I.C.): 20 mg/L (≈ 38.5 µM); MIC ([6]; Corynebacterium pyogenes CY1, Diagnostic Sensitivity Test Agar, 18 hours 37° C., read-out: M.I.C.): > 80 mg/L; MIC (S. dublin S7; S. dublin S7, Diagnostic Sensitivity Test Agar, 18 hours 37° C., read-out: M.I.C.): > 80 mg/L; MIC (E. coli El; E. coli El, Diagnostic Sensitivity Test Agar, 18 hours 37° C., read-out: M.I.C.): > 80 mg/L; MIC (M. suipneumoniae Str. 11; STR.11, 144 h): 0.25 mg/L (≈ 0.481 µM); MIC (Strep. Group C 64/848; Strep. Group C 64/848, nutrient agar, 5% chocolated horse blood, 18 hours 37° C., read-out: M.I.C.): 2.5 mg/L (≈ 4.81 µM); MIC (M. suipneumoniae TAM 6N; M. suipneumoniae TAM 6N, Friis broth, 0.9% agarose, 6 days 37° C., read-out: M.I.C.): 0.5 mg/L (≈ 0.962 µM); MIC [7]: 0.25 mg/L (≈ 0.481 µM)
C/C(=C\C(=O)OCCCCCC=NN(C)C)C[C@@H]1OC[C@H](C[C@@H]2O[C@H]2[C@@H](C)[C@H](C)O)[C@@H](O)[C@H]1O [Example 6, 6-Dimethylhydrazonohexyl monate A]	1 (≈ 2.06 µM)	0.25 (≈ 0.516 µM)	0.07 (≈ 0.144 µM)	2.5 (≈ 5.16 µM)	0.07 (≈ 0.144 µM)	0.07 (≈ 0.144 µM)	0.312 (≈ 0.644 µM)	1.25 (≈ 2.58 µM)	80 (≈ 165 µM)	2.5 (≈ 5.16 µM)	10 (≈ 20.6 µM)	0.312 (≈ 0.644 µM)	0.07 (≈ 0.144 µM)	0.5 (≈ 1.03 µM)	≤ 0.01	0.25 (≈ 0.516 µM)	2.5 (≈ 5.16 µM)	0.25 (≈ 0.516 µM)	MIC ([1]; J2206/183B): 1 mg/L (≈ 2.06 µM); MIC (S. typhimurium S18; TYPHIMURIUM, 18 h): > 80 mg/L; MIC (E. coli NCTC 10418; NCTC10418, 18 h): > 80 mg/L; MIC (Bord. bronchiseptica B08; B08, 18 h): 5 mg/L (≈ 10.3 µM); MIC ([4]; 18 h): 20 mg/L (≈ 41.3 µM); MIC ([6]; CY1, 18 h): > 80 mg/L; MIC (S. dublin S7; S7, 18 h): > 80 mg/L; MIC (E. coli El; 18 h): > 80 mg/L; MIC (M. suipneumoniae Str. 11; 144 h, M. suipneumoniae Str. 11, Friis broth, 0.9% agarose, 6 days 37° C., read-out: M.I.C.): 0.5 mg/L (≈ 1.03 µM); MIC (Strep. Group C 64/848; 18 h): 1 mg/L (≈ 2.06 µM); MIC (M. suipneumoniae TAM 6N): 1 mg/L (≈ 2.06 µM); MIC ([7]; M. suipneumoniae NCTC 10110, Friis broth, 0.9% agarose, 6 days 37° C., read-out: M.I.C.): 0.5 mg/L (≈ 1.03 µM)
